Assay results reported in PubChem BioAssay (NCI).
Several values for one entry are separate records, joined by “and”; a condition that tells them apart may be missing. Identical values can stand only once.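 Exposure lasted 48 hours, with cells grown in 96-well plates and compounds tested at five concentrations. GI50 marks 50% less growth. TGI: concentration producing complete growth inhibition.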

Assays:
Assay in all cases: NCI tumour cell line growth inhibition, 48 h
A498 renal = test system: A498 renal
PC-3 prostate = test system: PC-3 prostate
MDA-MB-435 = test system: MDA-MB-435
TK-10 renal = test system: TK-10 renal
SN12C renal = test system: SN12C renal
COLO 205 colon = test system: COLO 205 colon
OVCAR-5 ovarian = test system: OVCAR-5 ovarian
CCRF-CEM leukemia = test system: CCRF-CEM leukemia
SF-295 CNS = test system: SF-295 CNS
HCT-116 colon = test system: HCT-116 colon

| SMILES | GI50 (A498 renal) | TGI (A498 renal) | GI50 (PC-3 prostate) | TGI (PC-3 prostate) | GI50 (MDA-MB-435) | TGI (MDA-MB-435) | GI50 (TK-10 renal) | TGI (TK-10 renal) | GI50 (SN12C renal) | TGI (SN12C renal) | GI50 (COLO 205 colon) | TGI (COLO 205 colon) | GI50 (OVCAR-5 ovarian) | TGI (OVCAR-5 ovarian) | GI50 (CCRF-CEM leukemia) | TGI (CCRF-CEM leukemia) | GI50 (SF-295 CNS) | TGI (SF-295 CNS) | GI50 (HCT-116 colon) | TGI (HCT-116 colon) |
| --- | --- | --- | --- | --- | --- | --- | --- | --- | --- | --- | --- | --- | --- | --- | --- | --- | --- | --- | --- | --- |
| CC12CCC(O)CC1=CCC1C2CCC2(C)C(c3cccnc3)=CCC12 (stereo not given) | > 100 µM | > 100 µM | > 100 µM | > 100 µM | 83.7 µM | > 100 µM | > 100 µM | > 100 µM | > 100 µM | > 100 µM | > 100 µM | > 100 µM | > 100 µM | > 100 µM | > 100 µM | > 100 µM | 56 µM | > 100 µM | > 100 µM | > 100 µM |
| CN(C)CCOc1ccc(-c2cc(-c3ccc4c(c3)CC/C4=N\O)c(-c3ccncc3)o2)cc1 | 4.22 µM | 8.17 µM | 4.16 µM | 8.22 µM | 0.156 µM | 4.39 µM | 5.62 µM | 9.79 µM | 3.96 µM | 7.73 µM | 0.112 µM | 4.35 µM | 3.32 µM | 6.79 µM | 3.76 µM | 13.3 µM | 3.8 µM | 7.68 µM | 1.29 µM | 4.5 µM |
| COc1cc2c(cc1O)C(c1cc(O)c(O)c(OC)c1)C(O)(C(=O)O)C(CO)C2O (stereo not given) | – | > 100 µM | – | > 100 µM | – | 37 µM | – | > 100 µM | – | 32.6 µM | – | > 100 µM | – | > 100 µM | – | 22.7 µM | – | > 100 µM | – | 42.7 µM |
| CCOC(=O)c1nc2cc(C(F)(F)F)ccc2[n+]([O-])c1C | > 100 µM | > 100 µM | > 100 µM | > 100 µM | > 100 µM | > 100 µM | > 100 µM | > 100 µM | > 100 µM | > 100 µM | > 100 µM | > 100 µM | > 100 µM | > 100 µM | 0.159 µM | 0.533 µM | > 100 µM | > 100 µM | > 100 µM | > 100 µM |
| O=Nc1c(O)c2ccccc2c2ccccc12 | 1.6 µM | 3.07 µM | 0.633 µM | 2.73 µM | 0.179 µM | 0.317 µM | 2.7 µM | 7.9 µM | 0.449 µM | 1.88 µM | 1.92 µM | 3.46 µM | 1.94 µM | 4.53 µM | 1.25 µM | > 100 µM | 1.64 µM | 3.5 µM | 0.371 µM | 1.33 µM |
| Cc1cc(O)cc(C)c1/C=C/c1cncc(C(=O)OC(C)(C)C)c1 | 8.09 µM | > 25 µM | 10.4 µM | > 25 µM | 11.6 µM | > 25 µM | > 23.5 µM | > 25 µM | 12.6 µM | > 25 µM | > 25 µM | > 25 µM | > 25 µM | > 25 µM | 3.13 µM | > 25 µM | 19.8 µM | > 25 µM | 14.1 µM | > 25 µM |
| O=C(c1ccccc1O)c1[nH]c(Cl)c(Cl)c1-n1c(C(=O)c2ccccc2O)cc(Cl)c1Cl | 0.231 µM and 0.332 µM | 2.04 µM and 2.75 µM | 0.411 µM and 0.276 µM | 9.21 µM and 2.37 µM | 1.87 µM and 1.51 µM | 10.6 µM and 10.4 µM | 0.656 µM and 0.616 µM | 10.9 µM and 12.4 µM | 0.399 µM and 0.368 µM | 11.9 µM and 11 µM | 0.703 µM and 0.757 µM | 2.47 µM and 3.17 µM | 2.54 µM and 2.73 µM | 9.87 µM and 14.6 µM | 0.467 µM and 0.382 µM | 16.9 µM and 12.2 µM | 1.05 µM and 0.792 µM | 4.16 µM and 3.38 µM | 0.336 µM and 0.344 µM | 4.76 µM and 10.4 µM |
| CCc1ncnc2cc(OCC3CO3)c(OC)cc12 (stereo not given) | – | 58.1 µM | – | > 100 µM | – | 21.7 µM | – | 69.5 µM | – | 16.7 µM | – | 21.8 µM | – | > 100 µM | – | 27.2 µM | – | 30.3 µM | – | > 33.7 µM |
| C#C/C=C/CC1OC(C(Br)CC)CC(Br)C2CC1O2 (stereo not given) | – | > 100 µM | – | > 100 µM | – | > 100 µM | – | > 100 µM | – | > 100 µM | – | > 100 µM | – | > 100 µM | – | > 100 µM | – | > 100 µM | – | > 100 µM |
| CC(=O)c1ccc2c(c1)N(CCCN(C)C)c1ccccc1S2 | 11.4 µM | 25.1 µM | 14.2 µM | 30.2 µM | 11.8 µM | 25.7 µM | 14.7 µM | 29.5 µM | 14.5 µM | 30.8 µM | 3.32 µM | 11.7 µM | 13.9 µM | 27.9 µM | 18.5 µM | 47.3 µM | 11.9 µM | 25.5 µM | 11.3 µM | 23.7 µM |
| CCN(Cc1cccc(F)c1F)c1ccc(CO)c(Cl)c1 | 0.0217 µM | 0.102 µM | 15.4 µM | 37.2 µM | 17.7 µM | 37.1 µM | 0.0385 µM | 0.23 µM | 13.4 µM | 30.2 µM | 2.47 µM | 7.59 µM | 0.058 µM | 0.228 µM | 20.1 µM | 69.1 µM | 0.284 µM | 25 µM | 0.067 µM | 11.2 µM |
| NCCN1C(=O)c2ccccc2C1(O)c1ccc(Cl)cc1 (stereo not given) | – | 27.8 µM | – | 50 µM | – | 28.6 µM | – | 36.1 µM | – | > 100 µM | – | 39.4 µM | – | 39.8 µM | – | 57 µM | – | 55.3 µM | – | 31.7 µM |
| O=c1cc(O)c2c(O)cc(O)cc2o1 | – | > 100 µM | – | > 100 µM | – | > 100 µM | – | > 100 µM | – | > 100 µM | – | > 100 µM | – | > 100 µM | – | > 100 µM | – | > 100 µM | – | > 100 µM |
| Nc1cc2nc3ccccc3oc-2cc1=O | 5.44 µM | 11.1 µM | 16.7 µM | > 100 µM | 0.516 µM | 1.77 µM | 14.3 µM | 39.7 µM | 1.46 µM | 2.9 µM | 1.82 µM | 3.42 µM | 2.41 µM | 5.79 µM | 13.4 µM | > 64.9 µM | 1.44 µM | 3.79 µM | 6.1 µM | > 68 µM |
